Laboratory results taken from patent publication US8921563B2, “1-[(4-hydroxypiperidin-4-yl)methyl]pyridin-2(1H)-one derivatives, preparation methods and uses thereof” (Institue of Pharmacology and Toxicology Academy of Military …, priority 2010, dated 2014).

How the values were obtained:
[1] = target: T1, 5-HT transport protein (SERT) (Rattus norvegicus, UniProt P31652); experiment: Screening: competitive binding test to SERT using [3H]-citalopram; conditions: [3H]-citalopram 1 nM, read-out: Inhibition percent (I %), competitive binding to 5-HT transport protein (SERT)
T1 construct: Preparation of Membrane Proteins in Rat Hippocampi; from tissue; host or cells: Wistar rat hippocampus
Protocol: The homogenate was centrifuged under 1000×g for 10 minutes and the supernatant was then centrifuged under 39000×g for 10 minutes. The precipitate was collected, and resuspended with 10 times volume of Tris-HCl buffer solution (pH 7.4) relative to the original weight, then centrifuged under 39000×g for 10 minutes. The precipitate was washed with the same buffer solution, centrifuged under 39000×g for 10 minutes and the precipitate was suspended with the above buffer solution. After sub-packaged (the whole operation procedures were performed under ice bath), the product was stored at −80° C. The protein concentration was measured by Lowrry method.

5-HT1A receptor = target: T2, 5-HT1A receptor (Rattus norvegicus, UniProt P19327); experiment: Competitive binding test of YL-0911 and positive drugs to 5-HT1A receptor (extracted from hippocampi); conditions: [3H]-8-OH-DPAT 0.25 nM
T2 construct: the content of 5-HT1A receptor extracted from rat hippocampi was 5.5 mg/ml; from tissue; host or cells: Wistar rat hippocampus, membrane preparation
T2 sequence (P19327 1-422): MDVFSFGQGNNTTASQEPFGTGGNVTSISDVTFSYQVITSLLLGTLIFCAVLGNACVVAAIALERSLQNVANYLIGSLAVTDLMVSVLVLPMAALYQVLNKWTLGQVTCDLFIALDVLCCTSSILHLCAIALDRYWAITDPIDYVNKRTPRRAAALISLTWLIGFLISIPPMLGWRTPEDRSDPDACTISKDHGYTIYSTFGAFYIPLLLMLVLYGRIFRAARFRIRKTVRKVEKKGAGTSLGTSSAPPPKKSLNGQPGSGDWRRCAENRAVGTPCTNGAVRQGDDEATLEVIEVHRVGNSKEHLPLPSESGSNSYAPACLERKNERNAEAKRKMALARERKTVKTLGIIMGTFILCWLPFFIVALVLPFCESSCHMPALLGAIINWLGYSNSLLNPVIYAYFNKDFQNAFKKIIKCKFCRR
Protocol: 1) Test tubes were placed in 37° C. reactor.
3) To the test tubes, 20 μl of the drug to be tested (selecting a concentration ranging from 10^−3-10^−10M) was added.
IC50 and Kd were used to calculate Ki value.

NET = NET (Homo sapiens, UniProt P23975); experiment: Preliminary test of NET binding effect of YL-0911; conditions: 10^-5 and 10^-7 mol/L; NET protein from HEK-293 cell line
From the text: (4) Preliminary Test of NET Binding Effect of YL-0911 and Positive Control Drugs
Two different drug concentrations, 10^−5 and 10^−7 mol/L, were used to determine the binding effect of YL-0911 on NET protein extracted from the HEK-293 cell lines of stably expression NET.

mice [2] = experiment: Forced swim test in mice; type: in vivo; conditions: acute, 1 h before test
Protocol: 2.1.1 Forced Swim Test in Mice
Forced swim test in mice is an acute behavioral despair model established by Porsolt, et al.
(1) Experimental device: a glass cylinder (diameter 13 cm, height 24 cm, containing 10 cm of water maintained at 25).
(2) Experimental method: Male Kunming mice weighing 20-25 g. The mice were gently put in the water 1 h after intragastrically drug administration, and then the duration of immobility in the last 4 min of total 6 min test was recorded.

mice [3] = experiment: Tail suspension test in mice; type: in vivo; conditions: acute, 1 h before test
From the text: 2.1.2 Tail Suspension Test in Mice
Tail suspension test in mice is an acute behavioral despair model established by Stem, et al. (1985).
1) Experimental device: an experimental frame with spacing boards which dividing the experimental frame into 2 experimental chambers (20×25×30 cm). A clamp is mounted on a through cross rod in the chamber for clamping mice tail so as to suspend the mice.
2) Experimental method: Male Kunming mice weighing 20-25 g. The mice were intragastrically administered with YL-0911 or vehicle (distilled water). After 1 h, wrap adhesive tape around the mouse's tail in position three quarters of the distance from the base of the tail and then suspend the animals by passing the suspension hook through the adhesive tape 5 cm above the table. The duration of immobility in the last 4 min of total 6 min test was recorded.

mice [4] = experiment: Hole board test in mice; type: in vivo; conditions: long-term (23 days); for Number of Head dips / Time of head dipping: 5 min
Protocol: Hole board test, an animal model of anxiety established by Boissie, et al (1962), was performed in mice.
1) Experimental device: a transparent Perspex box (40×40×27 cm) which had four holes (3 cm in diameter, 1.8 cm in depth) in the floor. The distance of each hole center to its closest wall is 10 cm.
2) Experimental method: Male Kunming mice weighing 20-25 g. The mice were intragastrically administered with YL-0911 or vehicle (distilled water). After 23 days, the mice were placed at center of the hole board with their backs facing to the observer. A head dip was scored if the animal's head dipped into the hole at least up to eye level The latency to the first head-dip, the number of head-dips and the time spent in head-dipping were recorded for 5 min.

mice [5] = experiment: Novel object recognition test in mice; type: in vivo; conditions: repeated daily, tested day 8, mice
Protocol: Novel object recognition test is a cognitive behavior model established by Lima, et al.
1) Experimental device: a white Perspex box (60×60×16 cm), two completely identical objects, and one completely different object.
2) Experimental method: Male Kunming mice weighing 20-25 g. The mice were intragastrically administered with YL-0911 or vehicle (distilled water) for 5 days. On day 6, after treatment with YL-0911 or vehicle, each mouse was placed into the Perspex box at the same place for 5 min as habituation. On day 7, the mice were administered YL-0911 or vehicle and then individually placed in the Perspex box at the same place containing two identical objects located in the two diagonal corners for 5 minutes. On day 8, mice were tested for memory using the same procedure as day 7 except that one of the familiar objects was replaced with a novel object.

SERT = SERT (Homo sapiens, UniProt P31645); experiment: Competitive binding test of YL-0911 and positive drugs to SERT (hSERT from transfected cell lines)
SERT, sequence (P31645 whole entry): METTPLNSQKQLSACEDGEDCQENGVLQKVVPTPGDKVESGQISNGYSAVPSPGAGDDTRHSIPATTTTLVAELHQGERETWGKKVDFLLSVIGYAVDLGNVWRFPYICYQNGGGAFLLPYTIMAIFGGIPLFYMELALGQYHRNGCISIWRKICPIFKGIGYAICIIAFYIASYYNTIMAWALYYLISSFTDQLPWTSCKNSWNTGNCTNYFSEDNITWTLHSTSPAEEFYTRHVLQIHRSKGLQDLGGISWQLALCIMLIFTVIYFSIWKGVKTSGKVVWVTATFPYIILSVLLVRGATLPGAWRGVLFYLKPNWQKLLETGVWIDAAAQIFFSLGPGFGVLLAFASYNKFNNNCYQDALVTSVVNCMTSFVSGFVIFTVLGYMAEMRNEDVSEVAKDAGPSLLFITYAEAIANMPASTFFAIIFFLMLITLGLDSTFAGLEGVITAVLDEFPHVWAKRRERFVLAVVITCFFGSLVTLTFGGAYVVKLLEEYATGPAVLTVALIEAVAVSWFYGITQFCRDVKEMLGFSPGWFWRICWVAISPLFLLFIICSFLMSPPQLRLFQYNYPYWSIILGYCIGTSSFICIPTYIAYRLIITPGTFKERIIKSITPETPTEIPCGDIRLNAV

T1 sequence (P31652 whole entry): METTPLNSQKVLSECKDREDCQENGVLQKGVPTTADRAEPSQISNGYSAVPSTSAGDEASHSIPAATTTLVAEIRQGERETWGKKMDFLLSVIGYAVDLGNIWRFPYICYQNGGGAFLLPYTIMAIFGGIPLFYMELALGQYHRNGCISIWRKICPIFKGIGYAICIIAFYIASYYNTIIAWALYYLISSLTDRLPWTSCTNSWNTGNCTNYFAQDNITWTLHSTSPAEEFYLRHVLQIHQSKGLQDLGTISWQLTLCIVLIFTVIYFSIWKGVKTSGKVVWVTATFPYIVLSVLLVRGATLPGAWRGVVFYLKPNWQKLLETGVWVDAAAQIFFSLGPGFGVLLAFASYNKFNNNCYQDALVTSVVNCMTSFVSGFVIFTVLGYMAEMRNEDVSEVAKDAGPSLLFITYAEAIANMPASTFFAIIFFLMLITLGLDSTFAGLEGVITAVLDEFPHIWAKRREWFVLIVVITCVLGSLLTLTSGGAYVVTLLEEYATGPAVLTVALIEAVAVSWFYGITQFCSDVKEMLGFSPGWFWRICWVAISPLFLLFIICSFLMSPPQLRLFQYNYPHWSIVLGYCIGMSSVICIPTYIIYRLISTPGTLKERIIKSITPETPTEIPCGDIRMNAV
NET, sequence (P23975 whole entry): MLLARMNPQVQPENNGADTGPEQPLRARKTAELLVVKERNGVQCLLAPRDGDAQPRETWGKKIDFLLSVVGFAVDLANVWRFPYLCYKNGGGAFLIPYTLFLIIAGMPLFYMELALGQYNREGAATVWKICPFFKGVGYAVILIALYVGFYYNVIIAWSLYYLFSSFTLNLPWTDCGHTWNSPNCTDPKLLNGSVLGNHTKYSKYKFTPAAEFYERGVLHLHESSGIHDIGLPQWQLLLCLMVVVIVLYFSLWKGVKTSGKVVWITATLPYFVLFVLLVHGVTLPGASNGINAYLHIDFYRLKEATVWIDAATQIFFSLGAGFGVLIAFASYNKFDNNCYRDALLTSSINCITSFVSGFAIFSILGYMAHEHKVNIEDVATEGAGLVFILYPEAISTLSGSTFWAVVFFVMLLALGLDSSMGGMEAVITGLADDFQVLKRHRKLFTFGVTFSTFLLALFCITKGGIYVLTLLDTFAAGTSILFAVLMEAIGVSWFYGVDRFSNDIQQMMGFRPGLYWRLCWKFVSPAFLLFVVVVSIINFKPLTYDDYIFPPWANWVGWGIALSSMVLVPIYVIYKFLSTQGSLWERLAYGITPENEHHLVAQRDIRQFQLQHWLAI

inhibition at 10 µM ([1]; compound 10^-5 mol/L): 100%
inhibition at 0.1 µM ([1]; compound 10^-7 mol/L): 84%
Ki (5-HT1A receptor): 0.44 ± 0.32 nM
melting point: 216 to 218 °C
Ki (SERT): 5.38 ± 0.27 nM
Structure (SMILES): O=c1ccccn1CC1(O)CCN(Cc2ccccc2)CC1 [Compound 1, 1-[(1-benzyl-4-hydroxypiperidin-4-yl)-methyl]-pyridin-2(1H)-one]
affinity to NET (selectivity) (NET): obviously lower than the affinity to SERT and 5-HT1A
Immobility time (s), forced swim test (mice [2]; 0.625 mg/kg p.o.): 126.1 ± 60.9 s
Immobility time (s), forced swim test (mice [2]; 1.25 mg/kg p.o.): 72.0 ± 46.5 s
Immobility time (s), forced swim test (mice [2]; 5 mg/kg p.o.): 149.6 ± 39.1 s
Immobility time (s), tail suspension test (mice [3]; 0.625 mg/kg p.o.): 105.4 ± 24.6 s
Immobility time (s), tail suspension test (mice [3]; 1.25 mg/kg p.o.): 93.8 ± 38.7 s
Immobility time (s), tail suspension test (mice [3]; 5 mg/kg p.o.): 98.8 ± 45.3 s
the latency to the first head-dip (mice [4]; 0.625 mg/kg p.o.): 62.60 ± 16.75 s
Number of Head dips (mice [4]; 0.625 mg/kg p.o.): 6.40 ± 0.97
Time of head dipping (mice [4]; 0.625 mg/kg p.o.): 3.75 ± 0.91 s
the latency to the first head-dip (mice [4]; 1.25 mg/kg p.o.): 33.00 ± 6.34 s
Number of Head dips (mice [4]; 1.25 mg/kg p.o.): 10.60 ± 1.17
Time of head dipping (mice [4]; 1.25 mg/kg p.o.): 6.86 ± 0.55 s
the latency to the first head-dip (mice [4]; 5 mg/kg p.o.): 31.60 ± 6.88 s
Number of Head dips (mice [4]; 5 mg/kg p.o.): 7.40 ± 1.00
Time of head dipping (mice [4]; 5 mg/kg p.o.): 5.95 ± 0.93 s
Recognition index (mice [5]; 0.625 mg/kg p.o.): 59.95 ± 2.74
Recognition index (mice [5]; 1.25 mg/kg p.o.): 64.76 ± 5.02
